Experimental data from paper PMC4326127, “Collagen Inhibitory Peptide R1R2 Mediates Vascular Remodeling by Decreasing Inflammation and Smooth Muscle Cell Activation” (PLoS ONE, 2015).
“Also recorded” adds a separate entry of the source.

Legend:
[1] = system: U937 cells / HUVECs; experiment: Monocyte U937 transendothelial migration assay; type: cell-based, human; conditions: HUVECs on 5um transwells, 10 ng/ml TNF-α; U937 1.5x10^5 cells/transwell, 1.5 hours at 37°C; fluorescence 485/535; mean ± SD
Procedure: (§1) For in vivo experiments, the data are shown as the mean ± SEM. For in vitro experiments, the data shown are the means ± SD of a representative experiment, at least 3 independent experiments were performed. One-way ANOVA with post-hoc testing were used for data analysis with GraphPad Prism software (GraphPad, San Diego, CA). If normality test failed, nonparametric Kruskal-Wallis test followed by Dunn's post-hoc test were used. P > 0.05 was not considered significant.

[2] = system: VCAM-1; experiment: Western blot of VCAM-1 in TNF-α-treated HUVECs; type: cell-based, human; conditions: in words
Procedure: (§2) Human umbilical vein endothelial cells (HUVECs) and A7r5 SMCs were provided by Resource Center (SB3, NSC 100-2325-B-080-001), National Research Program for Biopharmaceuticals (Hsinchu, Taiwan). HUVECs were maintained in M199 (Life Technologies, Carlsbad, CA) with 25U/ml heparin (Sigma-Aldrich, St. Louis, MO), 10% fetal bovine serum (FBS) and endothelial cell growth supplement (ECGS; Millipore, Billerica, MA). A7r5 SMCs were grown in Dulbecco’s Modified Eagle’s Medium (DMEM) containing high glucose, supplemented with 10% fetal bovine serum. Human U937 cells were grown in RPMI1640 with 10% FBS.
(§3) Tissues or cells were homogenized with RIPA buffer supplemented with protease inhibitor cocktail (Sigma-Aldrich, St. Louis, MO). Cell lysates were spun at 12,000 rpm for 15 min at 4°C, then electrophoresed on 10% SDS-PAGE gel and transferred to nitrocellulose. […]
(§4) Fig 8 R1R2 decreases TNF-α-induced monocyte U937 cell adhesion to HUVECs and transendothelial migration and reduces ICAM-1 and VCAM-1 levels. […] Calcein-AM labeled U937 monocyte adhesion to TNF-α HUVECs was quantitated by fluorescence intensity. Microscopic images showing U937 monocytes adhering to HUVECs as assessed by in vitro adhesion assay. […]

[3] = system: left common carotid artery (flow-induced vascular remodeling); experiment: Morphometric analysis of carotid artery after complete common carotid ligation; type: in vivo, FVB/NJ (FVB) mice; conditions: for EEL Area / Intima+Media / Intima/Media Ratio / Lumen: 20 μM peptide in 50 μl F-127 pluronic gel, mean ± SEM
Description: (§5) Animals were anesthetized with isoflurane inhalation. The left common carotid artery was exposed, dissected free from the surrounding connective tissue and completely ligated with 6-0 silk suture just proximal to the carotid bifurcation. […] 4–10 mice were included in each experimental group.
5 groups of animals were processed for morphometric analysis. Mice were fixed with 10% formalin 7 or 14 days after the surgery. The common carotid arteries were harvested and embedded in paraffin.
as §1

[4] = system: U937 cells / HUVECs; experiment: Monocyte U937 adhesion to HUVECs; type: cell-based, human; conditions: HUVECs treated with 10 ng/ml TNF-α; calcein-AM U937 5x10^5 cells/well, 30 minutes at 37°C; fluorescence 485/535; mean ± SD
Procedure: as §1

[5] = system: A7r5 SMCs; experiment: SMC migration, scrape wound assay; type: cell-based
Procedure: as §2
A scrape wound assay was used to assess the effect of R1R2 and scrambled peptides on SMC migration as described. Briefly, A7r5 SMCs were grown until 90% confluent, followed by serum starvation and treatment with R1R2 and scrambled peptides for 36 hours. Several scrape wounds were then performed across the dish with a sterile yellow pipet tip. We initiated the experiment with treatment of cells with 10 ng/ml PDGF-BB. Photographs of the wound area were taken immediately after PDGF-BB addition (0 hour) and 30 hours postwounding with an Olympus CKX-41 microscope connected to a camera. At least three photographs were taken per group at each time point. Wound areas were determined using Image-Pro Software (Media Cybernetics, MD). Measurement of migration was determined by subtracting the cell-free area 30 hours after PDGF-BB addition from the cell-free area in the beginning of scrape wounds.
For in vivo experiments, the data are shown as the mean ± SEM. For in vitro experiments, the data shown are the means ± SD of a representative experiment, at least 3 independent experiments were performed. […]
Fig 6 R1R2 reduces SMC proliferation and migration. […] Cells were counted at the indicated time in the figure (n = 5). […] (C) Quantitation of SMC migration in the scratch wound healing assay was performed by subtracting the cell-free area 30 hours after PDGF-BB stimulation from the cell-free area in the beginning (n = 5). * indicates p<0.05 and ** p< 0.01.

[6] = system: ICAM-1; experiment: Western blot of ICAM-1 in TNF-α-treated HUVECs; type: cell-based, human; conditions: in words
Procedure: as §2, §3, §4

[7] = system: CD45 (+) leukocytes; experiment: CD45 IHC, leukocyte infiltration in carotid intima-media; type: in vivo, FVB/NJ (FVB) mice
Procedure: as §5
Paraffin sections selected from the first mm of the carotid artery in each group were used for immunohistochemistry (IHC). […] Sections were then incubated with appropriate biotinylated secondary antibodies followed by avidin-biotin immunoperoxidase system (Vector Laboratories, Burlingame, CA). Liquid DAB Substrate Chromogen system (Dako, Carpinteria, CA) was used for detection.
Quantitative IHC analysis was performed on digital images captured with a 20x objective by using Image-Pro Plus software. Data from 3–6 mice for each group were averaged, and the average values ± SEM were shown. For FN, collagen type I, SM-MHC and SM α-actin, color digital images were transformed into gray scale, and the sum of the optical densities from the intima+media area in each section was determined. […] The percent of positive cells is reported as the proliferation index. […] The intima+media region was traced manually. The percent of positively stained area in intima+media to the total traced area was assessed.
as §1

[8] = 7 day after ligation, periadventitial, scrambled n = 4, R1R2 n = 10
[9] = 14 day after ligation, periadventitial, scrambled n = 4, R1R2 n = 9

In the case of “GLNGENQKEPEQGERGEAGPPLSGLSGNNQGRPSLPGLNGENQKEPEQGERGEAGPP [R1R2]”, the U937 transendothelial migration [1] is reported as 65633 ± 20412 cells per well, the “VCAM-1 expression on HUVECs” value [2] is reported as “significantly decreased” and the “effect on neointimal formation” value ([3]; 7 and 14 days post-ligation, 20 μM peptide in pluronic gel, periadventitial, in words) is reported as “dramatic attenuation in injury-induced neointimal formation”. The “EEL Area” value [3, 8] was 64905 ± 3680 (n = 10) μm^2, the “Intima+Media” value [3, 8] was 29208 ± 884 (n = 10) μm^2 and the “Intima/Media Ratio” value [3, 8] was 0.0424 ± 0.0133 (n = 10). The Lumen [3, 8] was 32038 ± 2870 (n = 10) μm^2, the “effect on intima-media area, EEL area and intimal/medial ratio” value ([3]; 7 days and 14 days after ligation, compared to the control mice, in words) was “significantly reduced intima-media areas (Intima + Media), EEL area and intimal/medial ratios” and the “EEL Area” value [3, 9] was 51482 ± 4981 (n = 9) μm^2. For the same sequence, the “Intima+Media” value [3, 9] was 25706 ± 1220 (n = 9) μm^2, the “Intima/Media Ratio” value [3, 9] was 0.0709 ± 0.0231 (n = 9) and the Lumen [3, 9] was 25776 ± 4286 (n = 9) μm^2. The “effect on lumenal area” value ([3]; day 7 and 14 after injury, compared to the controls, in words) was “no significant decrease in the lumenal area”, the “U937 adhesion to HUVECs” value [4] was 197697 ± 34184 cells per cm^2 and the “effect on SMC migration (wound healing images)” value ([5]; 30 hours post PDGF-stimulation, versus scrambled peptide, in words) was “cells migrated more slowly”. The “SMC migration (cell-free area at 0 h minus cell-free area at 30 hours)” value ([5]; A7r5 SMCs, 36 hours peptide pretreatment, 10 ng/ml PDGF-BB, 30 hours, mean ± SD, n = 3) was 130149 ± 53295, the “ICAM-1 expression on HUVECs” value [6] was “significantly decreased; also recorded: transient and detected earlier than the effect on VCAM-1 expression” and the “CD45 (+) area in intima-media” value ([7]; 7 days after ligation, percent of positively stained area, mean ± SEM, R1R2 n = 5, scrambled n = 6) was 0.094 ± 0.035%. The “reduction of inflammatory cell infiltration into the vessel” value ([7]; carotid artery, periadventitial pluronic gel) was ~78%.
